Measurements as given in US8785619B1, “Nucleosides and oligonucleotides for studies on reversal of cytotoxic and mutagenic damage of DNA potential diagnostics tools” (ChemGenes Corporation, priority 2003, dated 2014).

Tests used:
[1] = Kinetic studies of N6 protecting group deprotection in ammonia: migration of methyl group from N1 to N6 (Dimroth rearrangement), by TLC and HPLC; format: physicochemical
Source text: Prior to utilize the N-6 chloroacetyl protected N-1 methyl-2′-deoxyadenosine 3′-cyanoethyl phosphoramidite, we carried out a number of kinetic studies for the deprotection of chloroacetyl group and determination of presence of any N-6 methyl
Our subsequent studies to develop a ideal group which would be cleanly removed under aq ammonia deprotection condition and would have negligible amount of Dimroth rearrangement product as bye product.
FIG. 7. 5′-DMT-N^1-Methyl-N^6-FMOC-2′-deoxyadenosine-Kinetic Test for FMOC. Deprotection (20% methanolic ammonia at 37 C. Note: The N-6 methyl migration product is seen 2.27% after complete deprotection.
(required to knock off Phenoxy acetyl from N^6 position). To minimize this migration, we introduced N-FMOC group in place of N-PAC which reduced 20% methanolic ammonia hydrolysis time to only 4 hours at 37° C. but even in 4 hours, approx. 2.5% migration took place. This migration of methyl group from N-^1 to N^6 position was confirmed by TLC & HPLC.

[2] = cited from earlier work
[3] = 2M methanolic ammonia at room temperature

For COc1ccc(C(OCC2OC(n3cnc4c(=NC(=O)OCC5c6ccccc6-c6ccccc65)n(C)cnc43)CC2OP(OCCC#N)N(C(C)C)C(C)C)(c2ccccc2)c2ccc(OC)cc2)cc1 (stereo not drawn) [5′-DMT-N^1-Methyl-N^6-FMOC-2′-deoxyadenosine-3′-cyanoethyl, n,n-diisopropyl phosphoramidite], which “presence of N-6 methyl-2′-deoxy adenosine” value ([1]; aq ammonia deprotection) is on record?
Its value is “less than 1%”.

With COc1ccc(C(OC[C@H]2O[C@@H](n3cnc4c(=NC(=O)OCC5c6ccccc6-c6ccccc65)n(C)cnc43)C[C@@H]2O)(c2ccccc2)c2ccc(OC)cc2)cc1 [5′-DMT-N^1-Methyl-N^6-FMOC-2′-deoxyadenosine] as the molecule, how does the “N-6 methyl migration product after complete deprotection” value ([1]; FMOC deprotection, 20% methanolic ammonia at 37 C (FIG. 7)) read?
The value was 2.27%.

What does the source list for Cn1cnc2c(ncn2[C@@H]2O[C@H](CO)[C@@H](O)[C@H]2O)c1=N [N^1-methyl adenosine]?
time stable [2, 3]: 3 days; time to total conversion into N6-methyl adenosine [2, 3]: 6 days

For Cn1cnc2c(ncn2[C@H]2C[C@H](O)[C@@H](CO)O2)c1=N [N^1-methyl-2′-deoxyadenosine], which “half life of conversion into N6-methyl-2′-deoxyadenosine” value ([2]; 25% aq. ammonia) is on record?
The value was 36 h.

With “N-6 chloroacetyl protected N-1 methyl-2′-deoxyadenosine 3′-cyanoethyl phosphoramidite” as the molecule, how does the “N-6 methyl-2′-deoxy adenosine formation (Dimroth rearrangement product)” value ([1]; deprotection of chloroacetyl group) read?
The value was 8-10%.
